Measured values reported in patent US20230142274A1 (SIMCERE PHARMACEUTICAL CO., LTD., priority 2020, published 2023).

Assays:
[1] = test system: Daudi cells; assay: Inhibition of human Daudi lymphoma cell proliferation (Cell-Titer Glo); format: cell-based; settings: Homo sapiens, 72 h, 3 days incubation, read-out: Anti-Proliferative Activity Against Daudi cells IC50
Outline: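 Daudi cells in RPMI 1640 with 10% FBS were seeded and grown 24 h, then exposed for 3 days (37 °C, 5% CO2) to 10-point 3-fold serial dilutions at 0.25% final DMSO. Viability was read by CellTiter-Glo ATP luminescence, and IC50 was fitted from % inhibition against top/bottom controls.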

[2] = test system: WI-38 cells; assay: Inhibition of human WI-38 embryonic lung cell proliferation (Cell-Titer Glo); format: cell-based; settings: Homo sapiens, 72 h, 3 days incubation, read-out: Anti-Proliferative Activity Against WI-38 cells IC50
Description: Introduction of the experimental principle: After the RAD51 inhibitor to be tested was co-incubated with human embryonic lung cells for a period of time, the influence of the test compound on cell proliferation was measured by a method for counting cell proliferation based on the quantitative measurement of intracellular ATP content.
Materials and Cells: WI-38 cells were purchased from ATCC; fetal bovine serum, 1640 medium and penicillin-streptomycin were purchased from Gibco Inc. (U.S.), 96-well plates were purchased from Corning Inc. (U.S.), and Cell-Titer Glo reagent was purchased from Promega Corporation (U.S.).
Cell culture: WI-38 cells were cultured in an EMEM culture medium containing 10% fetal bovine serum and 1% penicillin-streptomycin at 37° C. in an atmosphere containing 5% CO2. Cells in logarithmic growth phase could be used for experiments.
Assay of cell proliferation and viability: Cell-Titer Glo reagent was used to measure the inhibitory activities of the compounds on the proliferation of WI-38 cell strain. The concentration of cells was adjusted, and the cells were seeded in a 96-well plate and cultured at 37° C. in an atmosphere containing 5% CO2 for 24 hours. The powder of the compound was dissolved in 100% DMSO to form a 10 mM solution. 10 μl of the solution of the compound was aspirated and transferred into a 96-well compound plate containing 20 μl of DMSO solution in each well for 3-fold dilution and was then formulated to 10 serial dilutions. Thereafter, 2 μl of the solution of the compound was aspirated from the corresponding well and added correspondingly into a 96-well intermediate compound dilution plate containing 78 μl of complete culture medium in each well. The resultant was mixed well, and the plate was centrifuged at 1000 rpm for 1 minute. Finally, 10 μl of the solution of the compound was aspirated from the corresponding well of the 96-well intermediate compound dilution plate, and transferred into the corresponding well of the cell culture plate containing 90 μl of complete culture medium. The final concentration of DMSO was 0.25%. After the addition of the compound, the cells were continued to be incubated for 3 days at 37° C. in an atmosphere containing 5% CO2. Cell-Titer Glo reagent was added to measure cell viability.
% Compound inhibition was calculated and IC50 of the compound was fitted;
% Compound inhibition=1−100%×(Signal−Bottom)/(Top−Bottom)

SMILES	IC50 [1]	IC50 [2]
CC(C)OC(=O)N[C@H]1CC[C@H](c2ncc(-c3ccc(Nc4cc[nH]n4)cc3S(=O)(=O)NC(C)(C)C)s2)CC1 [Example 22, isopropyl trans-(4-(5-(4-((1H-pyrazol-3-yl)amino)-2-(N-(tert-butyl)sulfamoyl)phenyl)thiazol-2-yl)cyclohexyl)carbamate]	35 nM	23300 nM
CC(C)OC(=O)Nc1ccc(-c2nnc([C@H]3CC[C@H](NC(=O)OC(C)C)CC3)s2)c(S(=O)(=O)C(C)C)c1 [Example 25, isopropyl trans-N-[4-[5-[4-(isopropoxycarbonylamino)cyclohexyl]-1,3,4-thiadiazol-2-yl]-3-isopropylsulfonyl-phenyl]carbamate]	740 nM	> 25000 nM
CC(C)OC(=O)N[C@H]1CC[C@H](c2ncc(-c3ccc(NC(=O)N4CCc5ccccc5C4)cc3S(=O)(=O)NC(C)(C)C)s2)CC1 [Example 12, isopropyl trans-N-[4-[5-[2-(tert-butylsulfamoyl)-4-(3,4-dihydro-1H-isoquinoline-2-carbonylamino)phenyl]thiazol-2-yl]cyclohexyl]carbamate]	20 nM	> 25000 nM
Cc1cc(Nc2ccc(-c3cnc([C@H]4CC[C@H](NC(=O)OC(C)C)CC4)s3)c(S(=O)(=O)C3CCOC3)c2)n[nH]1 (stereo partly drawn) [Example 115, isopropyl trans-(4-(5-(4-((5-methyl-1H-pyrazol-3-yl)amino)-2-((tetrahydrofuran-3-yl)sulfonyl)phenyl)thiazol-2-yl)cyclohexyl)carbamate]	16 nM	> 25000 nM
CC(C)OC(=O)N[C@H]1CC[C@H](c2ncc(-c3ccc(Nc4cn(C)nn4)cc3P3(=O)CCCC3)s2)CC1 [Example 53, isopropyl trans-N-[4-[5-[4-[(1-methyltriazol-4-yl)amino]-2-(1-oxidophospholan-1-yl)phenyl]thiazol-2-yl]cyclohexyl]carbamate]	100 nM	> 25000 nM
CC(C)OC(=O)N[C@H]1CC[C@H](c2ncc(-c3ccc(Nc4cn(C)nn4)cc3S(=O)(=O)C(C)C)s2)CC1 [Example 39, isopropyl trans-(4-(5-(2-(isopropylsulfonyl)-4-((1-methyl-1H-1,2,3-triazol-4-yl)amino)phenyl)thiazol-2-yl)cyclohexyl)carbamate]	230 nM	> 25000 nM
CC(C)OC(=O)N[C@H]1CC[C@H](c2ncc(-c3ccc(Nc4cnn(C)c4)cc3S(=N)(=O)C3CC3)s2)CC1 (stereo partly drawn) [Example 69, isopropyl trans-(4-(5-(2-(cyclopropanesulfonimidoyl)-4-((1-methyl-1H-pyrazol-4-yl)amino)phenyl]thiazol-2-yl)cyclohexyl)carbamate]	30 nM	> 25000 nM
CC(C)OC(=O)Nc1ccc(-c2cnc(C3CC4CCC(C3)C4NC(=O)OC(C)C)s2)c(S(=O)(=O)NC(C)(C)C)c1 (stereo not shown) [Example 21, isopropyl N-[3-(tert-butylsulfamoyl)-4-[2-[8-(isopropoxycarbonylamino)-3-bicyclo[3.2.1]octyl]thiazol-5-yl]phenyl]carbamate]	440 nM	> 25000 nM
CC(C)OC(=O)Nc1ccc(-c2nnc([C@H]3CC[C@H](NC(=O)OC(C)C)CC3)s2)c(S(=O)(=O)NC(C)(C)C)c1 [Example 5, isopropyl trans-N-[3-(tert-butylsulfamoyl)-4-[5-[4-(isopropoxycarbonylamino)cyclohexyl]-1,3,4-thiadiazol-2-yl]phenyl]carbamate]	1160 nM	> 25000 nM
CC(C)OC(=O)N[C@H]1CC[C@H](c2ncc(-c3ccc(Nc4cc(C5CC5)[nH]n4)cc3S(=O)(=O)C(C)C)s2)CC1 [Example 45, isopropyl trans-N-[4-[5-[4-[(5-cyclopropyl-1H-pyrazol-3-yl)amino]-2-isopropylsulfonyl-phenyl]thiazol-2-yl]cyclohexyl]carbamate]	62 nM	> 25000 nM
Cc1cc(Nc2ccc(-c3cnc([C@H]4CC[C@H](NC(=O)OC(C)C)CC4)s3)c(S(=O)(=O)C3CCC3)c2)n[nH]1 [Example 88, isopropyl trans-(4-(5-(2-(cyclobutylsulfonyl)-4-((5-methyl-1H-pyrazol-3-yl)amino)phenyl)thiazol-2-yl)cyclohexyl)carbamate]	4 nM	> 25000 nM
CC(C)OC(=O)N[C@H]1CC[C@H](c2ncc(-c3ccc(NC(=O)C4CC4c4ccccc4)cc3S(=O)(=O)NC(C)(C)C)s2)CC1 (stereo partly drawn) [Example 18, isopropyl trans-N-[4-[5-[2-(tert-butylsulfamoyl)-4-[(2-phenylcyclopropanecarbonyl)amino]phenyl]thiazol-2-yl]cyclohexyl]carbamate]	90 nM	> 25000 nM
Cc1cc(Nc2ccc(-c3cnc([C@H]4CC[C@H](NC(=O)OC(C)C)CC4)s3)c(S(=O)(=O)C3CN(C)C3)c2)n[nH]1 [Example 114, isopropyl trans-(4-(5-(4-((5-methyl-1H-pyrazol-3-yl)amino)-2-((1-methylazetidin-3-yl)sulfonyl)phenyl)thiazol-2-yl)cyclohexyl)carbamate]	14 nM	> 25000 nM
CC(C)OC(=O)N[C@H]1CC[C@H](c2ncc(-c3ccc(NC(=O)NCc4ccccc4)cc3P(C)(C)=O)s2)CC1 [Example 26, isopropyl trans-(4-(5-(4-(3-benzylureido)-2-(dimethylphosphoryl)phenyl)thiazol-2-yl)cyclohexyl)carbamate]	130 nM	> 25000 nM
Cc1cc(Nc2ccc(-c3cnc([C@H]4CC[C@H](NC(=O)OC(C)C)CC4)s3)c(S(=O)(=O)C(C)C)c2)no1 [Example 37, isopropyl trans-(4-(5-(2-(isopropylsulfonyl)-4-((5-methylisoxazol-3-yl)amino)phenyl)thiazol-2-yl)cyclohexyl)carbamate]	330 nM	> 25000 nM
CC(C)OC(=O)N[C@H]1CC[C@H](c2ncc(-c3ccc(Nc4cnn(CCF)c4)cc3P3(=O)CCC3)s2)CC1 [Example 104, isopropyl trans-(4-(5-(4-((1-(2-fluoroethyl)-1H-pyrazol-4-yl)amino)-2-(1-oxophosphetan-1-yl)phenyl)thiazol-2-yl)cyclohexyl)carbamate]	23 nM	> 25000 nM
Cc1cc(Nc2ccc(-c3cnc([C@H]4CC[C@H](NC(=O)OC(C)C)CC4)s3)c(S(=O)(=O)NC(C)(C)C)c2)n[nH]1 [Example 28, isopropyl trans-(4-(5-(2-(N-(tert-butyl)sulfamoyl)-4-((5-methyl-1H-pyrazol-3-yl)amino)phenyl)thiazol-2-yl)cyclohexyl)carbamate]	48 nM	15000 nM
